Type in all cases: cell-based
For one test, the target named is T1, BRD4-NUT (Homo sapiens, UniProt O60885+Q86Y26).
T1 construct: endogenous in cells; host or cells: RPMI2650
The test is described as follows: BRD4-NUT protein degradation by western blotting in RPMI2650 cells (24 h treatment). As for the experimental part:
(§1) The synthesized compounds were prepared with a 10 mM or 50 mM raw material solution dissolved in DMSO [dimethyl sulfoxide], and were diluted sequentially and treated. [RPMI2650] and [SNU2972] were cultivated under specific conditions.
(§2) To evaluate the resolution of PROTAC for BRD4 expressed in cells, cells were dispensed in a concentration of 5 X 10^5 cells/well in a 6-well plate, and the sample was treated for 24 hours. […] Protein expression was normalized based on the expression value of β or GAPDH, and protein expression in each sample was measured as % based on 100% of samples treated with 0.1% DMSO vehicle. Protein expression was quantified using Image J program. Change in protein expression volume by compound treatment (DC50: concentration of compounds where 50% protein expression inhibition is achieved) was calculated using the GraphicPad Prism 8.0 software.
(Immunoblotting shows a protein as a band on a membrane.)

In a further test the target is BRD4 (Homo sapiens, UniProt O60885). The test is described as follows: BRD4 protein degradation by western blotting in RPMI2650 cells (24 h treatment). Also on record: To evaluate the resolution of PROTAC for BRD4 expressed in cells; endogenous in cells; host or cells: RPMI2650. The protocol: as §1, §2
The next test has as its system RPMI2650. The test is described as follows: Cancer cell antiproliferative activity / cell viability in RPMI2650 cells (72 h treatment). As to conditions: Homo sapiens. As for the experimental part:
The human breast cancer cell line [MDA-MB-231] was cultured in RPMI medium with the addition of 10% fetal bovine serum, penicillin [100U/ml], and streptomycin [[…]]. The synthesized compounds were prepared with a 10 mM or 50 mM raw material solution dissolved in DMSO [dimethyl sulfoxide], and were diluted sequentially and treated. [RPMI2650] and [SNU2972] were cultivated under specific conditions.
To observe cell growth inhibition, cells were dispensed in a concentration of 5,000 cells/well in a 96-well plate, and samples prepared at various concentrations were treated for 72 hours. The IC50 value (the concentration of the compound achieving 50% cytostaticism) is the average value of the results of three independent measurements.

The mark [1] stands for this setting: read-out: BRD4-NUT (DC50), RPMI2650.
The mark [2] stands for this setting: read-out: BR04 (DC50), RPMI2650.
Setting [3] is: RPMI-2650, RPMI2650, read-out: BRD4 (IC50).
The mark [4] stands for this setting: RPM12650, read-out: BRD4-NUT (DC50).
[5] abbreviates: RPMI-2650, RPM12650, read-out: Cell Viatility (IC50).
[6] abbreviates: RPM12650, read-out: BRD4 (DC50).

Molecules are shown by their SMILES. Read-outs that look alike come from different tables or passages of the source.

For the compound `Cc1sc2c(c1C)C(c1ccc(Cl)cc1)=N[C@@H](CC(=O)Nc1ccc(OCCCC#Cc3ccc4c(=O)n(C5CCC(=O)NC5=O)ncc4c3)cc1)c1nnc(C)n1-2` (stereo partly drawn) [ICT-0001409, 2-[(9S)-7-(4-chlorophenyl)-4,5,13-trimethyl-3-thia-1,8,11,12-tetraazatricyclo[8.3.0.0^2,^6]trideca-2(6),4,7,10,12-pentaene-9-yl]-N-[4-({5-[2-(2,6-dioxopiperidin-3-yl)-1-oxo-1,2-dihydroptalazine-6-yl]pent-4-phosphorus-1-yl}oxy)phenyl]acetamide], the DC50 at BRD4-NUT (setting [1]) and on BRD4 (setting [2]) was more than 1 µM in each case.
Take `Cc1sc2c(c1C)C(c1ccc(Cl)cc1)=N[C@@H](CC(=O)Nc1ccc(OCCCCCc3ccc4c(=O)n(C5CCC(=O)NC5=O)ncc4c3)cc1)c1nnc(C)n1-2` (stereo partly drawn) [ICT-0001411, 2-[(9S)-7-(4-chlorophenyl)-4,5,13-trimethyl-3-thia-1,8,11,12-tetraazatricyclo[8.3.0.0^2,^6]trideca-2(6),4,7,10,12-pentaene-9-yl]-N-[4-({5-[2-(2,6-dioxopiperidin-3-yl)-1-oxo-1,2-dihydroptalazine-6-yl]pentyl}oxy)phenyl)acetamide]: the DC50 on BRD4-NUT (setting [1]) and at BRD4 (setting [2]) was more than 1 µM in each case.
For `Cc1sc2c(c1C)C(c1ccc(Cl)cc1)=N[C@@H](CC(=O)Nc1ccc(OC[C@@H]3CN(c4ccc5c(=O)n(C6CCC(=O)NC6=O)nc(C)c5c4)CCO3)cc1)c1nnc(C)n1-2` (stereo partly drawn) [ICT-0001430, 2-[(9S)-7-(4-chlorophenyl)-4,5,13-trimethyl-3-thia-1,8,11,12-tetraazatricyclo[8.3.0.0^2,^6]trideca-2(6),4,7,10,12-pentaene-9-yl]-N-(4-{[(2S)-4-[2-(2,6-dioxopiperidin-3-yl)-4-methyl-1-oxo-1,2-dihydroptalazine-6-yl]morpholine-2-yl]methoxy}phenyl)acetamide], the DC50 at BRD4-NUT (setting [1]) and on BRD4 (setting [2]) was less than 0.1 µM in each case. The IC50 with RPMI2650 (setting [3]) fell in the range of 0.1 to 1 µM.
As to `Cc1sc2c(c1C)C(c1ccc(Cl)cc1)=N[C@@H](CC(=O)Nc1ccc(CN3CCN(c4ccc(NC5CCC(=O)NC5=O)cc4F)CC3)cc1)c1nnc(C)n1-2` (stereo partly drawn) [ICT-0001441, 2-[(9S)-7-(4-chlorophenyl)-4,5,13-trimethyl-3-thia-1,8,11,12-tetraazatricyclo[8.3.0.0^2,^6]trideca-2(6),4,7,10,12-pentaene-9-yl]-N-{4-[(4-{4-[(2,6-dioxopiperidine-3-yl)amino]-2-fluorophenyl}piperazine-1-yl)methyl]phenyl}acetamide], the DC50 on BRD4-NUT (RPMI2650, read-out: BRD4-NUT (DC50)) was less than 0.1 µM; on BRD4 (setting [2]), less than 0.1 µM. The IC50 in the test on RPMI2650 (setting [3]) is less than 0.1 µM.
`CC[C@@H]1c2nnc(C)n2-c2cnc(Nc3ccc(C(=O)NCCCC#Cc4ccc5c(=O)n(C6CCC(=O)NC6=O)ncc5c4)cc3OC)nc2N1CC1CCCCC1` (stereo partly drawn) [ICT-0001515, 4-(((R)-5-(cyclohexylmethyl)-4-ethyl-1-methyl-4,5-dihydro-[1,2,4]triazolo[4,3-f]pteridine-7-yl)amino)-N-(5-(2-(2,6-dioxopiperidin-3-yl)-1-oxo-1,2-dihydroptalazine-6-yl)pent-4-phosphorus-1-yl)-3-methoxybenzamide]: the DC50 at BRD4-NUT (setting [4]) and at BRD4 (setting [6]) was more than 1 µM throughout. Besides, in the test on RPMI2650 (setting [5]), the IC50 was more than 1 µM.
In the case of `CC[C@@H]1c2nnc(C)n2-c2cnc(Nc3ccc(C(=O)N4CCN(CC5CCN(c6ccc7c(=O)n(C8CCC(=O)NC8=O)nc(C)c7c6)CC5)CC4)cc3OC)nc2N1CC1CCCCC1` (stereo partly drawn) [ICT-0001516, 3-(6-(4-((4-(4-(((R)-5-(cyclohexylmethyl)-4-ethyl-1-methyl-4,5-dihydro-[1,2,4]triazolo[4,3-f]pteridine-7-yl)amino)3-methoxybenzoyl)piperazine-1-il)methyl)piperidine-1-yl)4-methyl-1-oxopthalazine-2(1H)-yl)piperidine-2,6-dione], the DC50 at BRD4-NUT (setting [4]) and at BRD4 (setting [6]) was less than 0.1 µM each time. Also, the IC50 in the test with RPMI2650 (setting [5]) was more than 1 µM.
Take `CC[C@@H]1c2nnc(C)n2-c2cnc(Nc3ccc(C(=O)N4CCN(c5ccc(NC6CCC(=O)NC6=O)cc5F)CC4)cc3OC)nc2N1CC1CCCCC1` (stereo partly shown) [ICT-0001517]: the DC50 at BRD4-NUT (setting [4]) and on BRD4 (setting [6]) was less than 0.1 µM in each case. Further, the IC50 in the test with RPMI2650 (setting [5]) is less than 0.1 µM.

The term DC50 denotes the midpoint of the concentration-degradation curve. The term IC50 denotes the concentration that inhibits the measured activity by half.

The record behind these values is EP4640686A1, “DEGRADER FOR DEGRADING BRD PROTEIN AND PHARMACEUTICAL COMPOSITION CONTAINING SAME” (Innocure Therapeutics, Inc., priority 2022, dated 2024).
